Assay results as given in patent US20250084091A1, “INHIBITORS OF SARS-COV-2” (The Texas A&M University System, priority 2021, published 2025).
Converted amounts (≈) assume the structure as drawn. Read-outs that look alike come from different tables or passages of the source.

What was measured:
[1] = tested on: HeLa-ACE2 cells; test: cells; type: cell-based; settings: Table 2, total cell count in infected plates
[2] = tested on: SARS-CoV-2 (strain USA-WA1/2020); test: microbe, parasite or virus in culture; type: cell-based; settings: SARS-CoV-2 infected HeLa-ACE2 cells
[3] = Uninfected host cell cytotoxicity counter screen; type: cell-based; settings: human
Summary of the method: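 HeLa-ACE2 cells, uninfected, seeded at 400 cells/well with compounds and held 24 hours at 37° C., 5% CO2. Dead cells stained with Image-iT DEAD green, fixed in 4% paraformaldehyde, DAPI-counterstained and imaged. Data normalized to DMSO and 40 μM puromycin controls; concentration responses in triplicate.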

[4] = tested on: CoV-2 in Vero cells; test: CoV-2 Vero antiviral assay; type: cell-based, SARS-CoV-2; settings: Severe acute respiratory syndrome coronavirus 2, Vero, read-out: CoV-2 Vero EC50/100
[5] = target: SARS-CoV-2 main protease (Mpro) (Severe acute respiratory syndrome coronavirus 2, UniProt P0DTD1); test: biochemical
[6] = Severe acute respiratory syndrome coronavirus 2, Table 2, read-out: CoV-2 HeLa EC50

Compound `O=C(c1cncc(Br)c1)N1CCC(=C(c2ccccc2)c2ccccc2)CC1` [NZ-771, 3-bromo-5-[4-(diphenylmethylidene)piperidine-1-carbonyl]pyridine] has an EC50 [1] greater than 9610 nM, an EC50 [2, 6] of 940 nM and a CC50 at 24 h [3] greater than 39800 nM. The EC50 [4] was 20 µg/mL (≈ 46.2 µM) and the IC50 ([5]; Table 2, read-out: Enzyme IC50) was 250 nM.
For `Cc1cncc(C(=O)N2CCN(C(c3ccccc3)c3ccccc3)CC2)c1` [AA-596, (4-benzhydrylpiperazin-1-yl)(5-methylpyridin-3-yl)methanone], the EC50 [1] was greater than 9610 nM, the EC50 [2, 6] was 360 nM and the CC50 at 24 h [3] was greater than 39800 nM. The EC50 [4] was 2.5 µg/mL (≈ 6.73 µM) and the IC50 ([5]; Table 2, read-out: Enzyme IC50) was 130 nM.
In the case of `Cc1cncc(C(=O)N2CCN(C(c3ccccc3)c3cccc(F)c3)CC2)c1` (centres unmarked) [MKP-1225, 1-[(3-fluorophenyl)(phenyl)methyl]-4-(5-methylpyridine-3-carbonyl)piperazine], the EC50 [1] is reported as 481 nM, the EC50 [2, 6] is reported as 210 nM and the CC50 at 24 h [3] is reported as greater than 39800 nM. For the same compound, the EC50 [4] was 2.5 µg/mL (≈ 6.42 µM) and the IC50 ([5]; Table 2, read-out: Enzyme IC50) was 38 nM.
Compound `Cc1cncc(C(=O)N2CCN(C(c3cccc(F)c3)c3cccc(F)c3)CC2)c1` [MKP-1268, 1-[bis(3-fluorophenyl)methyl]-4-(5-methylpyridine-3-carbonyl)piperazine] has an EC50 [1] of 143 nM, an EC50 [2, 6] of 111 nM and a CC50 at 24 h [3] greater than 39800 nM. For the same compound, the EC50 [4] was 2.5 µg/mL (≈ 6.14 µM) and the IC50 ([5]; Table 2, read-out: Enzyme IC50) was 36 nM.
With `O=C(c1cncc(Br)c1)N1CCN(C(c2ccccc2)c2ccccc2)CC1` [AA-551, (4-benzhydrylpiperazin-1-yl)(5-bromopyridin-3-yl)methanone] the EC50 [1] was greater than 9610 nM, the EC50 [2, 6] was 820 nM and the CC50 at 24 h [3] was greater than 39800 nM. The EC50 [4] was 2.5 µg/mL (≈ 5.73 µM) and the IC50 ([5]; Table 2, read-out: Enzyme IC50) was 220 nM.
Compound `Cc1cncc(C(=O)N2CCN(C(c3ccccc3)c3cccc(Cl)c3)CC2)c1` (centres unmarked) [MKP-1272, 1-[(3-chlorophenyl)(phenyl)methyl]-4-(5-methylpyridine-3-carbonyl)piperazine] has an EC50 [1] of 117 nM, an EC50 [2, 6] of 246 nM and a CC50 at 24 h [3] of 33600 nM. For the same compound, the EC50 [4] was 10 µg/mL (≈ 24.6 µM) and the IC50 ([5]; Table 2, read-out: Enzyme IC50) was 365 nM.
Work on `Cc1cncc(C(=O)N2CCC(=C(c3ccccc3)c3ccccc3)CC2)c1` [NZ-783, 3-[4-(diphenylmethylidene)piperidine-1-carbonyl]-5-methylpyridine] yielded an EC50 [1] greater than 9610 nM, an EC50 [2, 6] of 570 nM and a CC50 at 24 h [3] of 25600 nM. It also gave an EC50 [4] of 10 µg/mL (≈ 27.1 µM) and an IC50 ([5]; Table 2, read-out: Enzyme IC50) of 85 nM.
With `Cc1cncc(C(=O)N2CCC(=C3c4ccccc4CSc4ccccc43)CC2)c1` [NZ-794, [4-(6H-benzo[c][1]benzothiepin-11-ylidene)-1-piperidyl]-(5-methyl-3-pyridyl)methanone] the EC50 [1] was 345 nM, the EC50 [2, 6] was 155 nM and the CC50 at 24 h [3] was 39200 nM. For the same compound, the EC50 [4] was 2.5 µg/mL (≈ 6.06 µM) and the IC50 ([5]; Table 2, read-out: Enzyme IC50) was 60 nM.
`O=C(c1cncc(Br)c1)N1CCN(C2c3ccccc3C=Cc3ccccc32)CC1` [NZ-773, (5-bromo-3-pyridyl)-[4-(2-tricyclo[9.4.0.03,8]pentadeca-1(11),3(8),4,6,9,12,14-heptaenyl)piperazin-1-yl]methanone] gave an EC50 [1] greater than 9610 nM, an EC50 [2, 6] of 700 nM and a CC50 at 24 h [3] greater than 39800 nM. It also gave an EC50 [4] of 20 µg/mL (≈ 43.4 µM) and an IC50 ([5]; Table 2, read-out: Enzyme IC50) of 100 nM.
Compound `CC(=O)Nc1cncc(C(=O)N2CCN(C3c4ccccc4CCc4ccccc43)CC2)c1` [ZS-361, N-[5-[4-(2-tricyclo[9.4.0.03,8]pentadeca-1(11),3(8),4,6,12,14-hexaenyl)piperazine-1-carbonyl]-3-pyridyl]acetamide] has an EC50 [1] of 4320 nM, an EC50 [2, 6] of 1180 nM and a CC50 at 24 h [3] of 34200 nM. For the same compound, the EC50 [4] was 20 µg/mL (≈ 45.4 µM) and the IC50 ([5]; Table 2, read-out: Enzyme IC50) was 44 nM.
Compound `Cc1cncc(C(=O)N2CCN(C(c3ccccc3)c3cccnc3)CC2)c1` (centres unmarked) [MKP-1217, 1-(5-methylpyridine-3-carbonyl)-4-[phenyl(pyridin-3-yl)methyl]piperazine] has an EC50 [1] of 1310 nM, an EC50 [2, 6] of 475 nM and a CC50 at 24 h [3] greater than 39800 nM. For the same compound, the EC50 [4] was 10 µg/mL (≈ 26.8 µM) and the IC50 ([5]; Table 2, read-out: Enzyme IC50) was 320 nM.
`Cc1cncc(C(=O)N2CCN(C3c4ccccc4NC(=O)c4ccccc43)CC2)c1` (centres unmarked) [ZS-355, 11-[4-(5-methylpyridine-3-carbonyl)piperazin-1-yl]-5,11-dihydrobenzo[c][1]benzazepin-6-one] gave an EC50 [1] of 377 nM, an EC50 [2, 6] of 223 nM and a CC50 at 24 h [3] greater than 39800 nM. The EC50 [4] was 20 µg/mL (≈ 48.5 µM) and the IC50 ([5]; Table 2, read-out: Enzyme IC50) was 53 nM.
With `Cc1cncc(C(=O)N2CCC(=C3c4ccccc4C=Cc4ccccc43)CC2)c1` [NZ-793, (5-methyl-3-pyridyl)-[4-(2-tricyclo[9.4.0.03,8]pentadeca-1(11),3(8),4,6,9,12,14-heptaenylidene)-1-piperidyl]methanone] the EC50 [1] was 520 nM, the EC50 [2, 6] was 527 nM and the CC50 at 24 h [3] was 33100 nM. For the same compound, the EC50 [4] was 5 µg/mL (≈ 12.7 µM) and the IC50 ([5]; Table 2, read-out: Enzyme IC50) was 120 nM.
In the case of `Cc1cncc(C(=O)N2CCC(C(O)(c3ccccc3)c3ccccc3)CC2)c1` [NZ-782, [1-(5-methylpyridine-3-carbonyl)piperidin-4-yl]diphenylmethanol], the EC50 [1] is reported as greater than 9610 nM, the EC50 [2, 6] is reported as 570 nM and the CC50 at 24 h [3] is reported as greater than 39800 nM. It also gave an EC50 [4] of 5 µg/mL (≈ 12.9 µM) and an IC50 ([5]; Table 2, read-out: Enzyme IC50) of 230 nM.
In the case of `O=C(c1cncc(Br)c1)N1CCN(C2c3ccccc3CCc3ccccc32)CC1` [ZS-316, (5-bromo-3-pyridyl)-[4-(2-tricyclo[9.4.0.03,8]pentadeca-1(11),3(8),4,6,12,14-hexaenyl)piperazin-1-yl]methanone], the EC50 [1] is reported as greater than 9610 nM, the EC50 [2, 6] is reported as 700 nM and the CC50 at 24 h [3] is reported as greater than 39800 nM. It also gave an EC50 [4] of 2.5 µg/mL (≈ 5.41 µM) and an IC50 ([5]; Table 2, read-out: Enzyme IC50) of 140 nM.
Compound `Cc1cncc(C(=O)N2CC3CCC(C2)N3C(c2ccccc2)c2ccccc2)c1` [AA-604, (8-benzhydryl-3,8-diazabicyclo[3.2.1]octan-3-yl)(5-methylpyridin-3-yl)methanone] has an EC50 [1] greater than 9610 nM, an EC50 ([2]; Severe acute respiratory syndrome coronavirus 2, HeLa-ACE2, read-out: CoV-2 HeLa EC50, Table 2) of 240 nM and a CC50 at 24 h ([3]; Table 2, uninfected cells, 24 hours, read-out: Uninfected HeLa-ACE2 CC50) greater than 39800 nM. The EC50 [4] was 5 µg/mL (≈ 12.6 µM) and the IC50 ([5]; Enzyme IC50, Table 2) was 81 nM.
`Cc1cncc(C(=O)N2CCC(=C3c4ccccc4CCc4ccccc43)CC2)c1` [ZS-336, (5-methyl-3-pyridyl)-[4-(2-tricyclo[9.4.0.03,8]pentadeca-1(11),3(8),4,6,12,14-hexaenylidene)-1-piperidyl]methanone] gave an EC50 [1] of 314 nM, an EC50 [2, 6] of 252 nM and a CC50 at 24 h [3] of 31500 nM. For the same compound, the EC50 [4] was 2.5 µg/mL (≈ 6.34 µM) and the IC50 ([5]; Table 2, read-out: Enzyme IC50) was 54 nM.
With `Cc1cncc(C(=O)N2CCC(C(c3ccccc3)c3ccccc3)CC2)c1` [NZ-786, 3-[4-(diphenylmethyl)piperidine-1-carbonyl]-5-methylpyridine] the EC50 [1] was greater than 9610 nM, the EC50 [2, 6] was 570 nM and the CC50 at 24 h [3] was 28500 nM. For the same compound, the EC50 [4] was 10 µg/mL (≈ 27 µM) and the IC50 ([5]; Table 2, read-out: Enzyme IC50) was 170 nM.
In the case of `O=C(c1cncc(Br)c1)N1CCN(C2c3ccccc3COc3ccccc32)CC1` (centres unmarked) [NZ-776, (5-bromo-3-pyridyl)-[4-(6,11-dihydrobenzo[c][1]benzoxepin-11-yl)piperazin-1-yl]methanone], the EC50 [1] is reported as greater than 9610 nM, the EC50 [2, 6] is reported as 480 nM and the CC50 at 24 h [3] is reported as greater than 39800 nM. The EC50 [4] was 2.5 µg/mL (≈ 5.38 µM) and the IC50 ([5]; Table 2, read-out: Enzyme IC50) was 140 nM.
With `O=C(c1cncc(Br)c1)N1CCN(C2c3ccccc3CSc3ccccc32)CC1` (centres unmarked) [NZ-774, (5-bromo-3-pyridyl)-[4-(6,11-dihydrobenzo[c][1]benzothiepin-11-yl)piperazin-1-yl]methanone] the EC50 [1] was greater than 9610 nM, the EC50 [2, 6] was 630 nM and the CC50 at 24 h [3] was greater than 39800 nM. It also gave an EC50 [4] of 5 µg/mL (≈ 10.4 µM) and an IC50 ([5]; Table 2, read-out: Enzyme IC50) of 130 nM.
`Nc1cncc(C(=O)N2CCN(C3c4ccccc4CCc4ccccc43)CC2)c1` [ZS-342, (5-amino-3-pyridyl)-[4-(2-tricyclo[9.4.0.03,8]pentadeca-1(11),3(8),4,6,12,14-hexaenyl)piperazin-1-yl]methanone] showed an EC50 [1] of 1180 nM, an EC50 [2, 6] of 406 nM and a CC50 at 24 h [3] greater than 39800 nM. For the same compound, the EC50 [4] was 5 µg/mL (≈ 12.5 µM) and the IC50 ([5]; Table 2, read-out: Enzyme IC50) was 150 nM.
`Cc1cncc(C(=O)N2CCN(C3c4ccccc4CCc4ccccc43)CC2)c1` [ZS-329, (5-methyl-3-pyridyl)-[4-(2-tricyclo[9.4.0.03,8]pentadeca-1(11),3(8),4,6,12,14-hexaenyl)piperazin-1-yl]methanone] gave an EC50 [1] greater than 9610 nM, an EC50 [2, 6] of 330 nM and a CC50 at 24 h [3] of 21300 nM. The EC50 [4] was 5 µg/mL (≈ 12.6 µM) and the IC50 ([5]; Table 2, read-out: Enzyme IC50) was 89 nM.
